pIC50: −log10 of the molar value.
Assays:
HPAF-II cells [1] = assay: Cell cycle G2/M arrest, PI staining flow cytometry; type: cell-based; conditions: HPAF-II cells with p53 pathogenic mutation, 0.1 nM AST-3424, 5 µM Nutlin-3, 24 hours (Figure 5)
Method: Overview of the experimental process: • 1) H460/HPAF-II cell suspensions were added to a 24-well plate, with a cell density of 100000 /well and 995 µL of medium per well. • 2) The cells were cultured overnight in an incubator at 37°C, 5% CO2. • 3) Compound Treatment
After 24 hours of cell plating, according to the protocol, each cell line experiment was grouped as: Monotherapy: After 24 hours of cell plating, each well was supplied with 5µL of test compounds at different concentrations: 1% DMSO, 5 µM Nutlin-3 and 0.1 nM AST-3424, shaken gently to ensure even mixing, and then placed at 37°C, 5% CO2 in an incubator.
To cells AST-3424 pre-treatment for 2 hours followed by co-treatment with Nutlin-3 for 24 hours.
To cells Nutlin-3 pre-treatment for 2 hours followed by co-treatment with AST -3424 for 24 hours.
Co-treatment with AST-3424 and Nutlin-3 for 24 hours.
4) The cells were digested, centrifuged at 1000 g at 4°C, washed once with pre-cooled PBS, centrifuged at 1000 g at 4°C, and fixed with 1 mL of pre-cooled 70% ethanol at -20°C overnight.
5) The cells were centrifuged at 3000g at 4°C, washed once with pre-cooled PBS (phosphate buffer), centrifuged at 3000g at 4°C. Prepare PI staining solution. […] Flow cytometric detection was performed on the same day, and the proportion of cells in different cell cycle phases was analyzed using FlowJo. […]

[2] = test system: Total P53, MDM2, P21, AKR1C3 proteins in H460 P53 KO cells; assay: WB detection, presence and absence of Nutlin-3; type: cell-based, human; conditions: H460 P53 KO cells (#1, #7, #8, #12), 5 µM Nutlin-3, 24h, compared to H460 wild-type DMSO group (Figures 29, 30)
Method: (§1) • 1) H460 and H460 P53 KO cell suspensions were added to a 24-well plate, with a cell density of 100000 /well and 995 µL of medium per well. • 2) The cells were cultured overnight in an incubator at 37°C, 5% CO2. • 3) Compound Treatment
(§2) After 24 hours of cell plating, according to the protocol, each cell line experiment was grouped as: H460 WT untreated group, H460 P53 KO # 1 untreated group, H460 P53 KO # 7 untreated group, H460 P53 KO # 8 untreated group, H460 P53 KO # 12 untreated group, H460 WT 0.1% DMSO treated group, H460 WT 5 µM Nutlin-3 treated group, H460 P53 KO # 1 5 µM Nutlin-3 treated group, H460 P53 KO # 7 5 µM Nutlin-3 treated group, H460 P53 KO # 8 5 µM Nutlin-3 treated group, H460 P53 KO # 12 5 µM Nutlin-3 treated group. […]
(§3) • 1) The cell plates were taken back, the medium supernatant was discarded, and the plates were gently rinsed with PBS. […] The cells were scraped off with a cell scraper, lysed on ice for 30 min, and centrifuged at 14000 rpm and 4°C for 10 min. • 2) Protein quantification was performed using the BCA method. […] Solutions A and B of the ECL luminescence solution (SuperSignal West Femto Maximum Sensitivity) were mixed and added to the membrane dried away from water. […]

[3] = test system: Total P53, MDM2, P21, AKR1C3 proteins in H460 cells; assay: WB detection, presence and absence of Nutlin-3; type: cell-based, human; conditions: wild-type H460, 5 µM Nutlin-3, 24h, compared with the H460 wild-type DMSO group (Figures 29, 30)
Method: as §1, §2, §3

HPAF-II cells [4] = assay: In vitro cell proliferation inhibition (96-well, CTG, 72 hours); type: cell-based; conditions: Homo sapiens, monotherapy, applicant's previous cancer cell proliferation inhibition test data
H460 cells = assay: Cell proliferation experiment (3 days) with different administration sequences; type: cell-based; conditions: after the addition of Nutlin-3, different administration sequences (Figure 2)
Method: Further combination therapy experiments with different administration sequences of AST-3424 were carried out. Dosing regimens were set for the experiments.
Monotherapy: Each well was added with AST-3424 alone, Nutlin-3 alone, 5 µL of each compound in different concentrations (400 times) and 5 µL of medium. The cells were treated (DMSO 0.25% and 0.50%).
Combination therapy: Cells were treated with 5 µL each of AST-3424 and Nutlin-3 in different administration sequences: AST-3424 pre-treatment for 2 hours followed by co-treatment with Nutlin-3 for 6 hours; Nutlin-3 pre-treatment for 2 hours followed by co-treatment with AST-3424 for 6 hours; and co-treatment with AST-3424 and Nutlin-3 for 6 hours.

A549 cells = assay: Cell cycle G2/M arrest, PI staining flow cytometry; type: cell-based; conditions: second experiment, 0.3-9 nM AST-3424, 5 µM Nutlin-3, AST-3424 pre-treatment 2 hours (Figure 6)
Method: A second experiment was further conducted, in order to further study the effects of different concentrations of AST-3424 alone, Nutlin-3 alone and the two in combination and different administration sequences in the combination therapy on the cell cycle of H460/A549 cells (p53 wild-type, protein normal expression).
The remaining operations were similar to the above experiment, and the compound treatment conditions were as follows:
For A549 cell line, 1% DMSO, adding 5 µM Nutlin-3 for treatment for 22 hours, adding 0.3 nM AST-3424 for treatment for 24 hours, adding 1 nM AST-3424 for treatment for 24 hours, adding 9 nM AST-3424 for treatment for 24 hours, and adding 9 nM AST-3424 for treatment for 24 hours.
For A549 cell line, • Adding 0.3 nM AST-3424 for pre-treatment for 2 hours, and then adding 5 µM Nutlin-3 for co-treatment for 22 hours; • Adding 1 nM AST-3424 for pre-treatment for 2 hours, and then adding 5 µM Nutlin-3 for co-treatment for 22 hours; • Adding 3 nM AST-3424 for pre-treatment for 2 hours, and then adding 5 µM Nutlin-3 for co-treatment for 22 hours; • Adding 9 nM AST-3424 for pre-treatment for 2 hours, and then adding 5 µM Nutlin-3 for co-treatment for 22 hours.

Compound: COc1ccc(C2=NC(c3ccc(Cl)cc3)C(c3ccc(Cl)cc3)N2C(=O)N2CCNC(=O)C2)c(OC(C)C)c1 (racemic) [Nutlin-3]
- cell cycle (G0/G1, S, G2/M phases) (HPAF-II cells [1]): no effect
- expressions of MDM2, P53, P21 and AKR1C3 proteins (WB) [2]: not upregulated
- expressions of MDM2, P53, P21 and AKR1C3 proteins (WB) [3]: all upregulated

Compound: O=[N+]([O-])c1ccc(C(OP(=O)(N2CC2)N2CC2)C(F)(F)F)cc1Oc1ccc(-c2ccc(F)cc2)c(F)c1 (stereo not drawn) [AST]
- pIC50 (HPAF-II cells [4]): 6.48

Compound: C[C@H](OP(=O)(N1CC1)N1CC1)c1ccc([N+](=O)[O-])c(Oc2cccc(C(=O)N(C)C)c2)c1 [AST-3424]
- proliferation inhibition rate of AST-3424 (H460 cells): significantly increased
- G2/M cell cycle arrest (A549 cells): concentration-dependent G2/M cell cycle arrest

— EP4755396A1, “TREATMENT OF P53 GENE MUTATION OR DEFECT NEGATIVE CANCER AND TUMOR PATIENTS” (Ascentawits Pharmaceuticals, Ltd., priority 2023, dated 2025)
